{
  "source": "patent US12133915B2",
  "about": "“Method of treating epilepsy” (ALEXZA PHARMACEUTICALS, INC., priority 2016, dated 2024)",
  "key": {"[1]": {"test_system": "drug transporter", "test": "In vitro drug transporter inhibition potential", "assay_type": "in vitro ADME", "details": "maximum alprazolam concentration tested", "excerpt": "(§1) In vitro drug transporter and cytochrome P450 inhibition potential were also studied."}, "[2]": {"test_system": "patients with photosensitive epilepsy", "test": "Sedation by visual analogue scale (VAS), Phase 2a study", "assay_type": "in vivo, human", "protocol": "(§2) Patients at least 18 years old with photosensitive epilepsy at 3 sites were tested on a baseline day, and then received in randomized order either inhaled placebo (on 2 days) or 0.5, 1 or 2 mg inhaled alprazolam delivered using a hand-held inhaled alprazolam device. Study days were separated by at least 1 week. Presence (and degree) of photosensitivity was measured predose, then at 2 min, 10 min, 30 min, 1, 2, 4 and 6 hours post-dose. Plasma concentration of study drug was measured at each time point. Sedation was assessed at each time point using the 100-mm linear visual analogue scale (VAS).\n(§3) Secondary study endpoints included assessment of sedation using two visual analogue scales (VAS); correlation of plasma concentrations of inhaled alprazolam with PD effects on the SPR range; correlation of plasma concentrations of inhaled alprazolam with PD effects on sedation; and assessment of adverse events and changes in the neurological examination.\nAssessment of the sedation using 2 visual analogue scales was made. […] A correlation of plasma concentrations of inhaled alprazolam with pharmacodynamic effects on sedation was made. […] Maximum sedation occurred within about two minutes of administration of alprazolam. Clinical observations support early onset of sedation at 30 seconds."}, "[3]": {"test_system": "rat", "test": "Rat inhalation MTD study", "assay_type": "in vivo"}, "[4]": {"test_system": "patients with photosensitive epilepsy", "test": "Adverse events and tolerability, Phase 2a study", "assay_type": "in vivo, human", "details": "for Cough, subjects with adverse event / Dizziness, subjects with adverse event / Dysgeusia, subjects with adverse event / Oral Dysaesthesia, subjects with adverse event / Sedation/somnolence, subjects with adverse event: N = 5", "excerpt": "as §3\nAn assessment of adverse events and changes in the neurological examination were made. The safety profile was consistent with oral alprazolam."}, "[5]": {"test_system": "rats", "test": "14-day inhalation toxicity study in rats", "assay_type": "in vivo", "protocol": "In the 14-day inhalation toxicity study in rats, the no-adverse-effect level was considered to be 10.3 mg/kg/day."}, "[6]": {"test": "Plasma concentration of alprazolam in phase 1 and phase 2a clinical trials", "assay_type": "in vivo, human", "protocol": "as §2\nFIGS. 5A and 5B show graphs of the mean plasma concentration of alprazolam in phase 1 and phase 2a clinical trials respectively. The graphs indicate a rapid uptake of alprazolam into the plasma after […] administration of the condensation aerosol. […] Mean peak plasma concentration occurred one to two minutes after administration of the alprazolam […] aerosol."}, "[7]": {"test_system": "cytochrome P450", "test": "In vitro cytochrome P450 inhibition potential", "assay_type": "in vitro ADME", "details": "maximum alprazolam concentration tested", "excerpt": "as §1"}, "[8]": {"test": "Pharmacokinetic study in dogs, intravenous or inhalation administration", "details": "dog, in vivo", "excerpt": "In a pharmacokinetic (PK) study in dogs, alprazolam PK was profiled following either intravenous or inhalation administration."}, "[9]": {"test_system": "dogs", "test": "28-day GLP inhalation toxicity study with 14-day recovery in dogs", "details": "28-day inhalation"}, "[10]": {"test_system": "patients with photosensitive epilepsy (IPS-induced photoparoxysmal EEG response)", "test": "Intermittent photic stimulation (IPS) photosensitivity model, Phase 2a proof-of-concept study", "assay_type": "in vivo, human", "protocol": "Example 1 evaluated the ability of inhaled alprazolam to rapidly suppress photosensitivity in a double blind placebo-controlled crossover proof of concept study. This study was an in-clinic, randomized, placebo-controlled, double-blind design, 5-way crossover study design, which allowed for small patient size. Epilepsy patients were evaluated using an Intermittent Photic Stimulation model, allowing for screening for antiepileptic effects without triggering seizures or convulsive responses. Three doses of alprazolam were investigated along with placebo (twice) in 5 subjects.\nIn patients with photosensitive epilepsy, intermittent photic stimulation was used to elicit generalized epileptiform EEG activity. The subject is exposed to certain frequency of light stimulation (flash frequencies), and photosensitivity range measured. The model has been used to identify antiepileptic effects on a number of drugs.\nThe primary objectives of the study were to assess 1) the effects of inhaled alprazolam on the IPS-induced photoparoxysmal EEG response in patients with epilepsy, 2) the sedative properties of these doses in order to select maximally-effective dose with the least sedation for further clinical studies, and 3) overall safety. The primary endpoint was the change in the Standard Photosensitivity Range (SPR) in subjects receiving each dose of inhaled alprazolam.\nas §2\nThe test subjects were exposed to intermittent photic stimulation (14 frequencies, from 2 to 60 Hz), starting with lowest frequency and increasing frequency stepwise until a photosensitivity response was elicited. The test was repeated with the highest frequency and decreased frequency. The results can be summarized in a quantitative measure known as the Standardized Photosensitive Range (SPR). The Maximum SPR is 14. In the example shown, SPR is 8. The Primary endpoint is reduction in mean SPR, which is an indication of antiseizure activity. Patients that have a relatively stable SPR were enrolled in the study to allow for small study size."}, "[11]": {"test_system": "dogs", "test": "Cardiovascular and respiratory safety study in dogs, intravenous dosing", "assay_type": "in vivo", "protocol": "However, these changes were within normal ranges and not considered biologically significant. The plasma concentration of alprazolam associated with modest cardiovascular or respiratory effects exceeded 900 ng/mL and would not be expected to induce any significant changes at the range of doses planned considered for clinical studies (0.5 to 2.0 mg)."}, "[12]": {"test_system": "dogs", "test": "5-day exploratory inhalation toxicity study in dogs", "assay_type": "in vivo", "details": "5-day inhalation", "protocol": "In a 5-day exploratory inhalation toxicity study in dogs, the no-observed-adverse-effect level was 1.5 mg/kg/day for treatment-related histopathological findings."}, "[13]": {"details": "cited from earlier work"}, "[14]": {"test": "Aerosol particle size distribution by Next Generation Pharmaceutical Impactor (NGI)", "assay_type": "physicochemical", "details": "condensation aerosol, FIG. 4", "excerpt": "At least 80% by weight of the alprazolam aerosol particles have a size less than 5 microns, preferably at least 90% by weight of the alprazolam aerosol particles have a size less than 5 microns. At least 50% by weight of the alprazolam aerosol particles have a size less than 2 microns, preferably at least 50% by weight of the alprazolam aerosol particles have a size less than 1 micron. The Next Generation Pharmaceutical Impactor (NGI) was used to determine the particle size distribution."}, "[15]": {"details": "all treatment arms of the crossover (incl. placebo)"}},
  "data": [
    {"smiles": "Cc1nnc2n1-c1ccc(Cl)cc1C(c1ccccc1)=NC2", "note": "[alprazolam, 8-chloro-1-methyl-6-phenyl-4H-[1,2,4]triazolo [4,3-α][1,4]-benzodiazepine]", "values": [
      {"measurement": "drug transporter inhibition", "setting": "[1]", "result": "No inhibition"},
      {"measurement": "sedation, relation to dose", "setting": "[2]; 0.5, 1, 2 mg", "result": "dose related"},
      {"measurement": "time to maximum sedation (VAS)", "setting": "[2]; after administration", "result": "two"},
      {"measurement": "early onset of sedation, clinical observations", "setting": "[2]; in vivo", "result": 30, "unit": "s"},
      {"measurement": "onset of VAS (sedation) response", "setting": "[2]; in vivo", "result": "less than two"},
      {"measurement": "single inhaled dose well tolerated", "setting": "[3]", "result": "up to 10.8 mg/kg"},
      {"measurement": "Cough, subjects with adverse event", "setting": "[4]; 0.5 mg", "result": 2, "unit": "n"},
      {"measurement": "Dizziness, subjects with adverse event", "setting": "[4]; 0.5 mg", "result": 1, "unit": "n"},
      {"measurement": "Dysgeusia, subjects with adverse event", "setting": "[4]; 0.5 mg", "result": 2, "unit": "n"},
      {"measurement": "Oral Dysaesthesia, subjects with adverse event", "setting": "[4]; 0.5 mg", "result": 2, "unit": "n"},
      {"measurement": "Sedation/somnolence, subjects with adverse event", "setting": "[4]; 0.5 mg", "result": 1, "unit": "n"},
      {"measurement": "Cough, subjects with adverse event", "setting": "[4]; 1 mg", "result": 1, "unit": "n"},
      {"measurement": "Dizziness, subjects with adverse event", "setting": "[4]; 1 mg", "result": 0, "unit": "n"},
      {"measurement": "Dysgeusia, subjects with adverse event", "setting": "[4]; 1 mg", "result": 2, "unit": "n"},
      {"measurement": "Oral Dysaesthesia, subjects with adverse event", "setting": "[4]; 1 mg", "result": 0, "unit": "n"},
      {"measurement": "Sedation/somnolence, subjects with adverse event", "setting": "[4]; 1 mg", "result": 2, "unit": "n"},
      {"measurement": "Cough, total number of subjects experiencing an event", "setting": "[4]; [15]", "result": 2},
      {"measurement": "Dizziness, total number of subjects experiencing an event", "setting": "[4]; [15]", "result": 1},
      {"measurement": "Dysgeusia, total number of subjects experiencing an event", "setting": "[4]; [15]", "result": 2},
      {"measurement": "Oral Dysaesthesia, total number of subjects experiencing an event", "setting": "[4]; [15]", "result": 2},
      {"measurement": "Sedation/somnolence, total number of subjects experiencing an event", "setting": "[4]; [15]", "result": 2},
      {"measurement": "serious adverse events", "setting": "[4]; doses up to 2 mg, listed as inhaled alprazolam", "result": "no reported serious adverse events"},
      {"measurement": "tolerability of treatment", "setting": "[4]; in vivo", "result": "well tolerated"},
      {"measurement": "no-adverse-effect level", "setting": "[5]", "result": 10.3, "unit": "mg/kg/day"},
      {"measurement": "PK analysis, plasma concentrations versus dose", "setting": "[6]; 0.5, 1, 2 mg", "result": "dose proportionality"},
      {"measurement": "time of mean peak plasma concentration", "setting": "[6]; after administration of condensation aerosol", "result": "one to two"},
      {"measurement": "rapid rise in alprazolam plasma levels, time", "setting": "[6]; inhaled", "result": "less than 2 min"},
      {"measurement": "cytochrome P450 inhibition", "setting": "[7]", "result": "No inhibition"},
      {"measurement": "Tmax", "setting": "[8]; inhaled or intranasal, inhalation", "result": "< 1", "unit": "min"},
      {"measurement": "bioavailability", "setting": "[8]; inhaled, inhalation versus intravenous", "result": "85 to 96", "unit": "%"},
      {"measurement": "deaths during the study", "setting": "[9]", "result": "no deaths"},
      {"measurement": "immunogenic potential", "setting": "[9]", "result": "no immunoglobulin or hypersensitivity response"},
      {"measurement": "no-observed-effect level for histopathological findings", "setting": "[9]; females", "result": 4.4, "unit": "mg/kg/day"},
      {"measurement": "no-observed-effect level for histopathological findings", "setting": "[9]; males", "result": 2.8, "unit": "mg/kg/day"},
      {"measurement": "effect on photosensitivity", "setting": "[10]; 1 mg and 2 mg doses", "result": "almost complete elimination of the photosensitivity"},
      {"measurement": "time reduction of SPR was maintained", "setting": "[10]; after administration", "result": "at least six"},
      {"measurement": "change in mean standardized photosensitivity range (SPR)", "setting": "[10]; all doses (0.5, 1, 2 mg inhaled)", "result": "decreased"},
      {"measurement": "time to maximal or near-maximal effect on SPR", "setting": "[10]; all doses, post dose", "result": "≤ 2", "unit": "min"},
      {"measurement": "maximal decrease in SPR", "setting": "[10]; at least at the earlier time points", "result": "approximately 5 steps"},
      {"measurement": "duration of effects on SPR", "setting": "[10]; higher doses", "result": 4, "unit": "h"},
      {"measurement": "onset of SPR response", "setting": "[10]; in vivo", "result": "less than two"},
      {"measurement": "time to suppression of epileptic activity / effects on EEG", "setting": "[10]; patients with photosensitive epilepsy", "result": "≤ 2", "unit": "min"},
      {"measurement": "epileptiform activity in post-dose EEG traces", "setting": "[10]; representative patient, FIG. 7B", "result": "complete abolishment of epileptiform activity"},
      {"measurement": "plasma concentration associated with modest cardiovascular or respiratory effects", "setting": "[11]; intravenous", "result": "exceeded 900 ng/mL"},
      {"measurement": "heart rate", "setting": "[11]; intravenous over 5 sec", "result": "transient increase"},
      {"measurement": "respiratory rate", "setting": "[11]; intravenous over 5 sec", "result": "transient decrease"},
      {"measurement": "no-observed-adverse-effect level for treatment-related histopathological findings", "setting": "[12]", "result": 1.5, "unit": "mg/kg/day"},
      {"measurement": "solubility in chloroform", "setting": "[13]; chloroform", "result": "freely soluble"},
      {"measurement": "solubility in ethanol", "setting": "[13]; ethanol", "result": "soluble"},
      {"measurement": "solubility in methanol", "setting": "[13]; methanol", "result": "soluble"},
      {"measurement": "solubility in water", "setting": "[13]; water", "result": "practically insoluble"},
      {"measurement": "mass median aerodynamic diameter (MMAD) of aerosol particles", "setting": "[14]", "result": "1.2 to 1.8", "unit": "microns"}
    ]}
  ]
}
